# Measured values: patent US10238670B2, “9-aminomethyl minocycline compounds and methods of use thereof in urinary tract infection (UTI) treatment” (Paratek Pharmaceuticals, Inc., priority 2016, dated 2019)
# Read-outs that look alike come from different tables or passages of the source.
# Experiment: Phase 1b study in female adults with cystitis, urine PK
# Type: in vivo, human
# Conditions: for Ae0-24 (amount excreted in urine): mean; for clearance: female, human, urine and plasma
# Protocol: Urine was collected, the volume recorded, and analyzed for Compound 1 concentration at the following times: • Day 1 to 2: pooled total urine 0 to 4, 4 to 8, 8 to 12, and 12-24 hours after the t=0 h dose; Collection of the 12 to 24 h sample should be completed prior to the t=24 h dose on Day 2; • Day 5 to 6: pooled total urine 0 to 4, 4 to 8, 8 to 12, and 12-24 hours after the t=96 h dose;
# Urine was pooled during the intervals above. At the end of each interval, the time and total volume were recorded.
# Compound 1 urine concentration data was used to determine the amount excreted in a dosing interval, the urinary excretion rate, and, in conjunction with the plasma concentration data, to estimate the renal clearance (CLr) of Compound 1.
# Urine was collected and the volume recorded at the following times: • Day 1 to 2: pooled total urine 0 to 4, 4 to 8, 8 to 12, and 12-24 hours after the t=0 h dose; • Day 5 to 6: pooled total urine 0 to 4, 4 to 8, 8 to 12, and 12-24 hours after the t=96 h dose;
# At the end of each collection time period the pooled urine was frozen at −20° C. or colder and the total volume of urine collected for the time period was recorded. The samples were kept frozen at −20° C. or colder pending shipment to the bioanalytical laboratory.
# The urine sample volume, its Compound 1 concentration, the amount of Compound 1 excreted in the urine (product of volume and concentration) over a dosing interval, the urinary excretion rates and renal clearance (CLr) of Compound 1 following the initial Day 1 and final Day 5 doses were summarized by the treatment groups.
# [1] = Day 1, 0-4 hour Post t = 0, IV_PO300
# [2] = Day 1, 0-4 hour Post t = 0, PO300
# [3] = Day 1, 0-4 hour Post t = 0, PO450
# [4] = Day 1, 4-8 hour Post t = 0, IV_PO300
# [5] = Day 1, 4-8 hour Post t = 0, PO300
# [6] = Day 1, 4-8 hour Post t = 0, PO450
# [7] = Day 1, 8-12 hour Post t = 0, IV_PO300
# [8] = Day 1, 8-12 hour Post t = 0, PO300
# [9] = Day 1, 8-12 hour Post t = 0, PO450
# [10] = Day 1-2, 12-24 hour Post t = 0, IV_PO300
# [11] = Day 1-2, 12-24 hour Post t = 0, PO300
# [12] = Day 1-2, 12-24 hour Post t = 0, PO450
# [13] = Day 1, 200 mg IV, 300 mg po (n = 11)
# [14] = Day 5, 0-4 hour Post t = 96, IV_PO300
# [15] = Day 5, 0-4 hour Post t = 96, PO300
# [16] = Day 5, 0-4 hour Post t = 96, PO450
# [17] = Day 5, 4-8 hour Post t = 96, IV_PO300
# [18] = Day 5, 4-8 hour Post t = 96, PO300
# [19] = Day 5, 4-8 hour Post t = 96, PO450
# [20] = Day 5, 8-12 hour Post t = 96, IV_PO300
# [21] = Day 5, 8-12 hour Post t = 96, PO300
# [22] = Day 5, 8-12 hour Post t = 96, PO450
# [23] = Day 5-6, 12-24 hour Post t = 96, IV_PO300
# [24] = Day 5-6, 12-24 hour Post t = 96, PO300
# [25] = Day 5-6, 12-24 hour Post t = 96, PO450
# [26] = Day 5, 200 mg IV, 300 mg po (n = 11)
smiles,measurement,setting,value
"CN(C)c1cc(CNCC(C)(C)C)c(O)c2c1C[C@H]1C[C@H]3[C@H](N(C)C)C(O)=C(C(N)=O)C(=O)[C@@]3(O)C(O)=C1C2=O [Compound 1, 9-[(2,2-dimethyl-propylamino)-methyl]-minocycline]","Urine Concentration, Mean",[1],65360.0 ng/mL
same,"Urine Concentration, Median",[1],55000.0 ng/mL
same,"Urine Concentration, Mean",[2],14003.0 ng/mL
same,"Urine Concentration, Median",[2],14020.0 ng/mL
same,"Urine Concentration, Mean",[3],23008.0 ng/mL
same,"Urine Concentration, Median",[3],10500.0 ng/mL
same,"Urine Concentration, Mean",[4],43548.2 ng/mL
same,"Urine Concentration, Median",[4],40900.0 ng/mL
same,"Urine Concentration, Mean",[5],19088.9 ng/mL
same,"Urine Concentration, Median",[5],16800.0 ng/mL
same,"Urine Concentration, Mean",[6],20537.8 ng/mL
same,"Urine Concentration, Median",[6],15500.0 ng/mL
same,"Urine Concentration, Mean",[7],32407.3 ng/mL
same,"Urine Concentration, Median",[7],33700.0 ng/mL
same,"Urine Concentration, Mean",[8],19981.0 ng/mL
same,"Urine Concentration, Median",[8],13650.0 ng/mL
same,"Urine Concentration, Mean",[9],11699.0 ng/mL
same,"Urine Concentration, Median",[9],8995.0 ng/mL
same,"Urine Concentration, Mean",[10],22410.0 ng/mL
same,"Urine Concentration, Median",[10],19300.0 ng/mL
same,"Urine Concentration, Mean",[11],20772.0 ng/mL
same,"Urine Concentration, Median",[11],21300.0 ng/mL
same,"Urine Concentration, Mean",[12],25713.0 ng/mL
same,"Urine Concentration, Median",[12],19550.0 ng/mL
same,fe0-24 [dose absorbed],[13],20.4%
same,fe0-24 [dose administered],[13],20.4%
same,Ae0-24 (amount excreted in urine),"Day 1, 200 mg IV, 300 mg po (n = 11), total dose 200 IV",40.70 mg
same,fe0-24 [dose absorbed],"Day 1, 300 mg po (n = 10)",18.7%
same,fe0-24 [dose administered],"Day 1, 300 mg po (n = 10)",6.5%
same,Ae0-24 (amount excreted in urine),"Day 1, 300 mg po (n = 10), total dose 600 po",39.24 mg
same,fe0-24 [dose absorbed],"Day 1, 450 mg po (n = 10)",11.4%
same,fe0-24 [dose administered],"Day 1, 450 mg po (n = 10)",4.0%
same,Ae0-24 (amount excreted in urine),"Day 1, 450 mg po (n = 10), total dose 900 po",35.95 mg
same,"Urine Concentration, Mean",[14],42710.0 ng/mL
same,"Urine Concentration, Median",[14],26250.0 ng/mL
same,"Urine Concentration, Mean",[15],30900.0 ng/mL
same,"Urine Concentration, Median",[15],26850.0 ng/mL
same,"Urine Concentration, Mean",[16],35988.9 ng/mL
same,"Urine Concentration, Median",[16],25700.0 ng/mL
same,"Urine Concentration, Mean",[17],26090.0 ng/mL
same,"Urine Concentration, Median",[17],28500.0 ng/mL
same,"Urine Concentration, Mean",[18],29111.1 ng/mL
same,"Urine Concentration, Median",[18],18200.0 ng/mL
same,"Urine Concentration, Mean",[19],48117.0 ng/mL
same,"Urine Concentration, Median",[19],33700.0 ng/mL
same,"Urine Concentration, Mean",[20],33237.0 ng/mL
same,"Urine Concentration, Median",[20],14850.0 ng/mL
same,"Urine Concentration, Mean",[21],25350.0 ng/mL
same,"Urine Concentration, Median",[21],19600.0 ng/mL
same,"Urine Concentration, Mean",[22],30466.0 ng/mL
same,"Urine Concentration, Median",[22],20600.0 ng/mL
same,"Urine Concentration, Mean",[23],21480.0 ng/mL
same,"Urine Concentration, Median",[23],12590.0 ng/mL
same,"Urine Concentration, Mean",[24],17940.0 ng/mL
same,"Urine Concentration, Median",[24],16000.0 ng/mL
same,"Urine Concentration, Mean",[25],30280.0 ng/mL
same,"Urine Concentration, Median",[25],23400.0 ng/mL
same,fe0-24 [dose absorbed],[26],30.7%
same,fe0-24 [dose administered],[26],10.8%
same,Ae0-24 (amount excreted in urine),"Day 5, 200 mg IV, 300 mg po (n = 11), total dose 300 po",32.27 mg
same,fe0-24 [dose absorbed],"Day 5, 300 mg po (n = 10)",36.4%
same,fe0-24 [dose administered],"Day 5, 300 mg po (n = 10)",12.7%
same,Ae0-24 (amount excreted in urine),"Day 5, 300 mg po (n = 10), total dose 300 po",38.21 mg
same,fe0-24 [dose absorbed],"Day 5, 450 mg po (n = 10)",34.8%
same,fe0-24 [dose administered],"Day 5, 450 mg po (n = 10)",12.2%
same,Ae0-24 (amount excreted in urine),"Day 5, 450 mg po (n = 10), total dose 450 po",54.87 mg
same,clearance,"intravenous, 200 mg, Day 1, IV_PO300, read-out: Renal CL, Geo. Mean (converted)",33 mL/min
same,clearance,"intravenous, 200 mg, Day 1, IV_PO300, read-out: Renal CL, Mean (converted)",38.3 mL/min
same,clearance,"intravenous, 200 mg, Day 1, IV_PO300, read-out: Renal CL, Median (converted)",27.2 mL/min
same,clearance,"oral, 300 mg, Day 5, IV_PO300, read-out: Renal CL, Geo. Mean (converted)",63 mL/min
same,clearance,"oral, 300 mg, Day 5, IV_PO300, read-out: Renal CL, Mean (converted)",94.6 mL/min
same,clearance,"oral, 300 mg, Day 5, IV_PO300, read-out: Renal CL, Median (converted)",44 mL/min
same,clearance,"oral, 300 mg, Day 5, PO300, read-out: Renal CL, Geo. Mean (converted)",57.4 mL/min
same,clearance,"oral, 300 mg, Day 5, PO300, read-out: Renal CL, Mean (converted)",78.2 mL/min
same,clearance,"oral, 300 mg, Day 5, PO300, read-out: Renal CL, Median (converted)",58.6 mL/min
same,clearance,"oral, 450 mg, Day 5, PO450, read-out: Renal CL, Geo. Mean (converted)",21.5 mL/min
same,clearance,"oral, 450 mg, Day 5, PO450, read-out: Renal CL, Mean (converted)",29.1 mL/min
same,clearance,"oral, 450 mg, Day 5, PO450, read-out: Renal CL, Median (converted)",27.8 mL/min
same,"Ae 0-4 hrs, Geo. Mean","urine, Day 1, IV_PO300",11.59 mg
same,"Ae 0-4 hrs, Mean","urine, Day 1, IV_PO300",13.80 mg
same,"Ae 0-4 hrs, Median","urine, Day 1, IV_PO300",9.74 mg
same,"Ae 0-24 hrs, Geo. Mean","urine, Day 1, IV_PO300",36.98 mg
same,"Ae 0-24 hrs, Median","urine, Day 1, IV_PO300",41.40 mg
same,"Ae 4-8 hrs, Geo. Mean","urine, Day 1, IV_PO300",7.28 mg
same,"Ae 4-8 hrs, Mean","urine, Day 1, IV_PO300",8.61 mg
same,"Ae 4-8 hrs, Median","urine, Day 1, IV_PO300",7.96 mg
same,"Ae 8-12 hrs, Geo. Mean","urine, Day 1, IV_PO300",5.53 mg
same,"Ae 8-12 hrs, Mean","urine, Day 1, IV_PO300",6.80 mg
same,"Ae 8-12 hrs, Median","urine, Day 1, IV_PO300",6.17 mg
same,"Ae 12-24 hrs, Geo. Mean","urine, Day 1, IV_PO300",12.70 mg
